Patent publication US8956824B2, “Methods for identifying allosteric modulators of ship polypeptides” (British Columbia Cancer Agency Branch, priority 2006, dated 2015)

Columns and labels:
[1] = target: T1, SHIP2 enzyme (Homo sapiens, UniProt O15357); assay: In vitro SHIP enzyme assay, SHIP2; assay type: biochemical; conditions: FIG. 1B
T1 construct: purchased Echelon Biosciences (Salt Lake City, Utah)
T1 sequence (O15357 1-1258): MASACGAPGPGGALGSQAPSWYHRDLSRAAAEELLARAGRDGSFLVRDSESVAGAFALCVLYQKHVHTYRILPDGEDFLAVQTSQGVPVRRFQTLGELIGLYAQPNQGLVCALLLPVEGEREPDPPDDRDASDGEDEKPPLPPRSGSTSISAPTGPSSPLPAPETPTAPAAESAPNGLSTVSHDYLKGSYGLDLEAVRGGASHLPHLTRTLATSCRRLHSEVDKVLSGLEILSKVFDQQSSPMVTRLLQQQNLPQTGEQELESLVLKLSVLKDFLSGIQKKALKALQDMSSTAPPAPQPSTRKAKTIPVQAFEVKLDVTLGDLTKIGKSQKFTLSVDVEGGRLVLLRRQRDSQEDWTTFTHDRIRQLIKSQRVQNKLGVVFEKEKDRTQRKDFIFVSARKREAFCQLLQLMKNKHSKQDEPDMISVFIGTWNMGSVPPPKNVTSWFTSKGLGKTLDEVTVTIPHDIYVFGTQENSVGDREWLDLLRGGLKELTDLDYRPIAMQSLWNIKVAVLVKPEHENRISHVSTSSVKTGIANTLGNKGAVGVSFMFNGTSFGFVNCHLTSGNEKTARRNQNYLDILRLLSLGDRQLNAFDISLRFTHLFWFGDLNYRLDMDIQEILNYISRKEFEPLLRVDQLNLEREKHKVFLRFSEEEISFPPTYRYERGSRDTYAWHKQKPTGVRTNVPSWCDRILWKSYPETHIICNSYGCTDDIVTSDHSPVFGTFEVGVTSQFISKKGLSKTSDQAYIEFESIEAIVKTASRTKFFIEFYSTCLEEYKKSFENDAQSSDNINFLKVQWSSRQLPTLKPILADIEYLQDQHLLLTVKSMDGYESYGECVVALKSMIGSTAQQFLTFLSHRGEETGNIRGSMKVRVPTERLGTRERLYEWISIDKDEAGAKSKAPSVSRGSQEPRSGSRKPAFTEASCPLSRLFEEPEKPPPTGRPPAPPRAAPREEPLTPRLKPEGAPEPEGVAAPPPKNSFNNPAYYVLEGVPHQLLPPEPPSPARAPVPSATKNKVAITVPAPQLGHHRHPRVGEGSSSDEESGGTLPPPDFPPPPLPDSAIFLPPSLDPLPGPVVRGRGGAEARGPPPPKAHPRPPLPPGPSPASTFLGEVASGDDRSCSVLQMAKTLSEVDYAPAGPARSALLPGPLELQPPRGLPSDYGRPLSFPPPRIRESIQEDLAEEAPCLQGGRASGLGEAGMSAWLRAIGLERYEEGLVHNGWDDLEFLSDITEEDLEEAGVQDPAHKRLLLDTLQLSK
Experimental: In vitro SHIP enzyme assay. The SHIP enzyme assay was performed in 96-well microtitre plates with 10 ng of enzyme/well in a total volume of 25 μL of 20 mM Tris HCl, pH 7.5 and 10 mM MgCl2. SHIP1 enzyme was incubated with test extracts (provided in DMSO) or vehicle for 15 mM at 23° C. before the addition of 100 μM inositol-1,3,4,5-tetrakisphosphate (Echelon Biosciences Inc, Salt Lake City, Utah). The reaction was allowed to proceed for 20 min at 37° C. and the amount of inorganic phosphate released assessed by the addition of Malachite Green reagent followed by an absorbance measurement at 650 nm (15). SHIP2 enzyme was purchased from Echelon Biosciences (Salt Lake City, Utah) and an equivalent amount of inositol phosphatase activity was used in the in vitro enzyme assay. Enzyme data are expressed as the mean of triplicates+/−SEM. Experiments were performed at least 3 times.

[2] = target: T2, PH domain deleted SHIP1 (Mus musculus, UniProt Q9ES52, DEL292-400/E403A/P402A/Q401A); assay: Scintillation proximity assay, PH domain deleted SHIP1; assay type: binding
T2 construct: Full length, wild-type SHIP1 enzyme (wt) or SHIP1 enzyme in which the PH or C2 domains were deleted; His6 (N); made in house; 293T cells are stated only for the wild-type enzyme
T2 sequence (Q9ES52 with tags, fused parts or gaps DEL292-400/Q401A/P402A/E403A): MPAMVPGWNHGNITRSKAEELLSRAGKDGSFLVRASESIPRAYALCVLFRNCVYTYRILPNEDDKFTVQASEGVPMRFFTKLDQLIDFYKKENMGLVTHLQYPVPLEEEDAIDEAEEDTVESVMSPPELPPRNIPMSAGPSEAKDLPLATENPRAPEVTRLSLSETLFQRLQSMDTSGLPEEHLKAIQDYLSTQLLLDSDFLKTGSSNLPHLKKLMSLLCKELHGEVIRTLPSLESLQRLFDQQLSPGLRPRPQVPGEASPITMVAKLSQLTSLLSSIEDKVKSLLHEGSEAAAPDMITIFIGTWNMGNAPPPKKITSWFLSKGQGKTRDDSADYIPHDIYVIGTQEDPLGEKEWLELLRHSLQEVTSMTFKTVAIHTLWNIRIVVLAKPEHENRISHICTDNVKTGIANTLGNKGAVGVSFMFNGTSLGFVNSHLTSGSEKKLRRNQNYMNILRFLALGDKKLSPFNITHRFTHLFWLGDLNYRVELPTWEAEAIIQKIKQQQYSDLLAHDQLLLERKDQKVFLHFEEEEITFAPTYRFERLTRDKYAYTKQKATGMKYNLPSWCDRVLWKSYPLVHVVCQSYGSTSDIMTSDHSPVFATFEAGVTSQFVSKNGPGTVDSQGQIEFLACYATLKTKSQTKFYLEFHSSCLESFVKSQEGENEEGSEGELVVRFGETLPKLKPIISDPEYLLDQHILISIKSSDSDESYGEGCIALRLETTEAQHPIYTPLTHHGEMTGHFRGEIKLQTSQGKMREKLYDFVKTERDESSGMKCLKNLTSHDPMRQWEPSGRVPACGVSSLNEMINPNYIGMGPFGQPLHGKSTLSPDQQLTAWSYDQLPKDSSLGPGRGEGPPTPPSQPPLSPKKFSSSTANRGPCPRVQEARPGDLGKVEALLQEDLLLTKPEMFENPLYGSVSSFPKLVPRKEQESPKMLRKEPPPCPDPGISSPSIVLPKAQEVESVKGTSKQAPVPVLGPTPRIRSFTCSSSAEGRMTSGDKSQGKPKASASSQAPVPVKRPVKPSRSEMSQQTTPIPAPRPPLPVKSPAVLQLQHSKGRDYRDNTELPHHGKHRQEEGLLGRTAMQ

binding of [3H]-AQX-MN100 to SHIP1 with PH domain deleted [2]	Structure (SMILES)	activation of SHIP1 versus SHIP2 [1]
	Cc1cc(O)c(O)c2c1[C@]1(C)CC[C@H]3C(C)(C)CCC[C@]3(C)[C@H]1C2 [AQX-016A]	preferentially activates SHIP1 over SHIP2
attenuates the ability of SHIP1 to bind	Cc1cc(O)cc2c1[C@]1(C)CC[C@H]3C(C)(C)CCC[C@]3(C)[C@H]1C2 [AQX-MN100]	
